Experimental data reported in PubChem BioAssay (NCI).
“And” between values parts separate entries of the source, which are not always exact repeats. Equal values may be shown once.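 Method: 48-hour compound exposure of cells in 96-well plates, five concentrations, linear interpolation of endpoints. GI50 is the concentration that inhibits growth by half. TGI denotes the concentration required for complete inhibition of growth.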

System: MDA-MB-468 breast
Assay: NCI tumour cell line growth inhibition, 48 h

| Structure (SMILES) | GI50 | TGI [nM] |
| --- | --- | --- |
| Cn1cc(-c2cc(N)n3nc(-c4cn(C)c5ccc(F)cc45)cc3n2)c2cc(F)ccc21 | 1590 nM | 3450 |
| CC1=C[C@H]2O[C@@H]3C[C@H]4OC(=O)/C=C\C=C\[C@H]([C@@H](C)O)OCC[C@@H](C)[C@H](O)C(=O)OC[C@@]2(CC1)[C@]4(C)[C@]31CO1 | 3.71 nM and 1.43 nM | 2.28 |
| C=C(C)CCC(C)N1CCC(N2CCC(C(=O)NCCc3ccccc3)CC2)CC1 (stereo unspecified) | 2200 nM | 15800 |
| Cc1ccc2c(c1)ncn2-c1ncnc2c1CC(C)c1ccccc1N2C (stereo unspecified) | 49.2 nM | 19200 |
| CC1=CC(=O)C(C(C)=Nc2ccccc2Cl)C(=O)O1 (stereo unspecified) | > 100000 nM | > 100000 |
| Clc1ccc2nc(Oc3ccccc3)cnc2c1 | > 100000 nM | > 100000 |
| COc1cnc2c(c1)C(=O)c1c-2n(CCCN2CCCC2)c(=O)c2cc(Cl)ccc12 | 63.5 nM | 2040 |
| C=C[C@]1(C)C=C2C(=O)[C@@]3(O)OC[C@@]4(CCCC(C)(C)C43O)C2(O)C(O)C1 (stereo partly specified) | 1290 nM | 3160 |
| CCCCCc1c(C)[nH]c(/C=C2\N=C(c3ccc[nH]3)C=C2Oc2ccc(Cl)cc2)c1C | 24.3 nM | 2180 |
| O=c1oc2ccc(Cl)cc2c(=O)n1-c1ccc(I)cc1F | 269 nM | 870 |
| COC1CCN(Cc2ccc3c(NNC(=O)c4cnccn4)nc4cc(F)ccc4n23)C1 (stereo unspecified) | 916 nM | 4270 |
| Cn1cc(-c2ccc(CNc3cc(-c4cnc5cc(OCCCN6CCCC6)ccn45)ncn3)cc2)cn1 | 1660 nM | 3210 |
| Fc1ccc(Nc2nc(NCCNc3ccnc4cc(Cl)ccc34)nc(N3CCOCC3)n2)cc1 | 1960 nM | 4830 |
| COc1ccc(/C=C2\CCCC3=C2NC(C)=NC3c2ccc(OC)c(OC)c2)cc1OC (stereo unspecified) | 1290 nM | 8180 |
| CCOC(=O)N1CCN(S(=O)(=O)c2oc(-c3ccc(Cl)cc3)nc2C#N)CC1 | 1890 nM | 4090 |
| COc1cc(/C=C(/c2ccccc2)[N+](=O)[O-])c(OC)c2c1OCO2 | 1330 nM | 2730 |
| COc1ccc2c(c1)nc(N)c1c3cccnc3cn21 | 294 nM | 3450 |

| Structure (SMILES) | GI50 | TGI [nM] |
| --- | --- | --- |
| Oc1cc(Cl)ccc1Oc1ccc(Cl)cc1Cl | 2420 nM | 7240 |
| O=C(NN1C(=O)CSC1c1ccc(Cl)cc1)c1[nH]c2ccc(F)cc2c1-c1ccccc1 (stereo unspecified) | 8040 nM | 25100 |
| NCc1ccc(-n2c(-c3nonc3N)nc3cnccc32)cc1 | 2750 nM | 11800 |
| COc1ccccc1-c1c(C)nn2c(NCc3ccccn3)cc(C)nc12 | 1660 nM | > 40400 |
| C[C@H](CS(C)(=O)=O)Nc1ncc2cc(Oc3ccc(F)cc3F)c(=O)n(C)c2n1 | > 25000 nM | > 25000 |
| CCN1C(=O)N(CC)C2C1NN=c1s/c(=C3\C(=O)N(C)c4ccccc43)c(=O)n12 (stereo unspecified) | 354 nM | 6010 |
| Cn1cc(-c2ccc3c(c2)CCN3C(=O)Cc2cccc(C(F)(F)F)c2)c2c(N)ncnc21 | 3710 nM | 29200 |
| CS(=O)(=O)Nc1cc(-c2ccc3ncnc(Nc4ccc5c(cnn5Cc5ccc(F)cc5)c4)c3c2)cnc1Cl | 281 nM | 1520 |
| Cc1cc(N2CCCC2)nc(N(CCCNc2ccnc3cc(Cl)ccc23)Cc2ccc3c(c2)OCO3)n1 | 1180 nM | 3550 |
| CC(C)OC(=O)c1ccc2[nH]c(O)c(C(=Nc3ccc(N(C)C(=O)CN4CCN(C)CC4)cc3)c3ccccc3)c2c1 | 964 nM | 2460 |
| O=C(/C=C/c1ccccc1Cl)Nc1ncc(Cc2cc(Cl)ccc2Cl)s1 | 934 nM | 11100 |
| Nc1nc(Nc2cccc(F)c2)nc2ccccc12 | 13600 nM | 30800 |
| COC(=O)[C@@H]1CCCN1C(=O)[C@@H]1CCCN1C(=O)[C@@H](Cc1c[nH]c2ccccc12)NC(=S)Nc1cc(C(F)(F)F)cc(C(F)(F)F)c1 | 2050 nM | 7020 |
| Fc1ccc(Nc2nccc(-c3c(-c4ccc(C(F)(F)F)cc4)nn4ncccc34)n2)cc1F | > 20000 nM | > 25000 |
| CCCCC[C@H]1C/C=C2/C(=O)C(Cl)=C[C@@H]2C/C=C\CCCC(=O)O[C@@H](CCCCC)C/C=C2/C(=O)C(Cl)=C[C@@H]2C/C=C\CCCC(=O)O1 | 366 nM | 862 |
| CCc1c[nH]c2ncnc(N3CC[C@@](N)(CNC(=O)c4ccc(F)cc4F)C3)c12 | 15000 nM | 63700 |
